Results published in US7179825B2, “Retinoic acid mimetic anilides” (Janssen Pharmaceutica N.V., priority 1997, dated 2007).

What was measured:
Ovariectomized rats = test: Vaginal keratinization test on ovariectomized rats (Example C.2); assay type: in vivo; conditions: estradiol undecylate induced keratinization, per os once daily on days 1-3, active dose = 50% of rats show complete suppression
How it was run: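 Ovariectomized rats given s.c. estradiol undecylate (100 μg per 100 g body weight in sesame oil), then oral compound once daily on days 1-3 (vehicle PEG 200). Vaginas assessed histologically one day after last dose; lowest active dose (mg/kg) is the dose giving complete keratinization suppression in 50% of rats.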

[1] = system: metabolism of retinoic acid in human breast cancer cells; test: Inhibition of retinoic acid (RA) metabolism (Example C.1); assay type: cell-based; conditions: MCF-7 human breast cancer cells, 3H-RA as substrate, concentration needed to reduce the amount of metabolites to 50% of the control
How it was run: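 MCF-7 cells, pre-stimulated with RA the day before, incubated with ³H-RA substrate and test compound in 1% DMSO. Polar ³H-metabolites separated from unmetabolized RA and counted by scintillation. IC50 is the concentration cutting metabolite formation to 50% of control, with blank run alongside.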

Row | SMILES | LAD (lowest active dose) (Ovariectomized rats) | IC50 [1] | minimal effective dose (Ovariectomized rats; Rattus norvegicus, po, read-out: LAD (lowest active dose)) | IC50 ([1]; MCF7)
1 | CC(C)C(c1ccc(NC(=O)Nc2cccc(Cl)c2)cc1)n1ccnc1 (racemic) [Compound 738] | 10.00 mg/kg | 2.03 nM |  | 
2 | CC(C)C(c1ccc(NC(=O)Nc2ccc(Cl)cc2)cc1)n1ccnc1 (racemic) [Compound 739] | >10.00 mg/kg | 42.1 nM |  | 
3 | CC(C)C(c1ccc(NC(=O)Nc2ccc(F)cc2)cc1)n1ccnc1 (racemic) [Compound 740, (±)-N-(4-fluorophenyl)-N′-[4-[1-(1H-imidazol-1-yl)-2-methylpropyl]phenyl]urea] |  |  | 20 mg/kg | 1.29 nM
4 | CC(C)C(c1ccc(NC(=O)Nc2cccc(F)c2)cc1)n1ccnc1 (racemic) [Compound 741] | 10.00 mg/kg | 1.44 nM |  | 
5 | CC(C)C(c1ccc(NC(=O)Nc2ccccc2)cc1)n1ccnc1 (racemic) [Compound 742] | 10.00 mg/kg | 0.261 nM |  | 
6 | CCCCC(c1ccc(NC(=O)/C(C)=C/c2ccccc2)cc1)(C(C)C)n1ccnc1 (racemic) [Compound 761] | >5.00 mg/kg | > 100 nM |  | 
7 | CCC(CC)C(O)(c1ccc(NC(C)=O)cc1)c1cncn1C (racemic) [Compound 772] | >5.00 mg/kg | 0.146 nM |  | 
8 | CCC(CC)C(c1ccc(NC(=O)C(O)c2ccc(Cl)cc2)cc1)n1cncn1 (single isomer, unassigned) [Compound 21] | 5.00 mg/kg | 2.89 nM |  | 
9 | CCOc1ccc(CCC(=O)Nc2ccc(C(C(CC)CC)n3ccnc3)cc2)cc1 (single isomer, unassigned) [Compound 61] | 2.50 mg/kg | 0.734 nM |  | 
10 | CCC(CC)C(c1ccc(NC(=O)Cc2ccc(OC)c(C)c2)cc1)n1cncn1 (single isomer, unassigned) [Compound 85] | 2.50 mg/kg | 3.92 nM |  | 
11 | CCC(CC)C(c1ccc(NC(=O)Cc2ccc(OC)c(C)c2)cc1)n1cncn1 (single isomer, unassigned) [Compound 86] | 2.50 mg/kg | 0.497 nM |  | 
12 | COc1ccc(CC(=O)Nc2ccc(C(C(C)N(C)C)n3cncn3)cc2)cc1Cl (single isomer, unassigned) [Compound 288] | >2.50 mg/kg | 1.28 nM |  | 
13 | CC(C(c1ccc(NC(=O)Cc2ccc(O)c(Cl)c2)cc1)n1cncn1)N(C)C (single isomer, unassigned) [Compound 289] | >2.50 mg/kg | 0.507 nM |  | 
14 | Cc1cc(CC(=O)Nc2ccc(C(C(C)N(C)C)n3cncn3)cc2)cc(C)c1C (single isomer, unassigned) [Compound 290] | 2.50 mg/kg | 1.14 nM |  | 
15 | Cc1cc(CC(=O)Nc2ccc(C(C(C)N(C)C)n3cncn3)cc2)cc(C)c1C (single isomer, unassigned) [Compound 291] | >2.50 mg/kg | 4.23 nM |  | 
16 | COc1cc(CC(=O)Nc2ccc(C(C(C)N(C)C)n3cncn3)cc2)cc(OC)c1OC (single isomer, unassigned) [Compound 292] | >2.50 mg/kg | 0.137 nM |  | 
17 | CCOc1ccc(CC(=O)Nc2ccc(C(C(C)N(C)C)n3cncn3)cc2)cc1OCC (single isomer, unassigned) [Compound 293] | >2.50 mg/kg | 6.53 nM |  | 
18 | COc1cc(CC(=O)Nc2ccc(C(C(C)N(C)C)n3cncn3)cc2)ccc1Cl (single isomer, unassigned) [Compound 297] | >2.50 mg/kg | 0.786 nM |  | 

Row | SMILES | LAD (lowest active dose) (Ovariectomized rats) | IC50 [1] | minimal effective dose (Ovariectomized rats; Rattus norvegicus, po, read-out: LAD (lowest active dose)) | IC50 ([1]; MCF7)
19 | CCOc1ccc(CC(=O)Nc2ccc(C(C(C)N(C)C)n3ccnc3)cc2)cc1OCC (single isomer, unassigned) [Compound 301] | >2.50 mg/kg | 6.05 nM |  | 
20 | Cc1ccc(CC(=O)Nc2ccc(C(C(C)N(C)C)n3ccnc3)cc2)cc1C (single isomer, unassigned) [Compound 306] | >2.50 mg/kg | 1.26 nM |  | 
21 | CC(C(c1ccc(NC(=O)Cc2ccc(O)c(Cl)c2)cc1)n1ccnc1)N(C)C (single isomer, unassigned) [Compound 307] | >2.50 mg/kg | 0.701 nM |  | 
22 | Cc1cc(CC(=O)Nc2ccc(C(C(C)N(C)C)n3ccnc3)cc2)cc(C)c1C (single isomer, unassigned) [Compound 309] | >2.50 mg/kg | 3.65 nM |  | 
23 | COc1cc(CC(=O)Nc2ccc(C(C(C)N(C)C)n3ccnc3)cc2)ccc1Cl (single isomer, unassigned) [Compound 311] | 2.50 mg/kg | 0.664 nM |  | 
24 | COc1ccc(CC(=O)Nc2ccc(C(C(C)N(C)C)n3ccnc3)cc2)cc1C (single isomer, unassigned) [Compound 313] | 2.50 mg/kg | 0.02 nM |  | 
25 | CC(C)Oc1ccc(CC(=O)Nc2ccc(C(C(C)N(C)C)n3ccnc3)cc2)cc1 (single isomer, unassigned) [Compound 316] | 5.00 mg/kg | 4.06 nM |  | 
26 | CC(C(c1ccc(NC(=O)Cc2ccc3c(c2)OCO3)cc1)n1cncn1)N(C)C (single isomer, unassigned) [Compound 330] | 2.50 mg/kg | 1.82 nM |  | 
27 | C/C(=C\c1ccccc1)C(=O)Nc1ccc(C(C(C)N(C)C)n2cncn2)cc1 (single isomer, unassigned) [Compound 332] | >2.50 mg/kg | 1.5 nM |  | 
28 | CC(C(c1ccc(NC(=O)Cc2ccc3c(c2)OCCO3)cc1)n1ccnc1)N(C)C (single isomer, unassigned) [Compound 339] | >2.50 mg/kg | 1.23 nM |  | 
29 | CCOc1ccc(CCC(=O)Nc2ccc(C(C(C)N(C)C)n3ccnc3)cc2)cc1 (single isomer, unassigned) [Compound 346] | >5.00 mg/kg | 2.04 nM |  | 
30 | COc1ccccc1OCC(=O)Nc1ccc(C(C(C)N(C)C)n2ccnc2)cc1 (single isomer, unassigned) [Compound 351] | >5.00 mg/kg | 5.69 nM |  | 
31 | CC(C(c1ccc(NC(=O)CN2CCN(C)CC2)cc1)n1ccnc1)N(C)C (single isomer, unassigned) [Compound 352] | >5.00 mg/kg | 0.257 nM |  | 
32 | CC(C(c1ccc(NC(=O)CN2CCN(C)CC2)cc1)n1ccnc1)N(C)C (single isomer, unassigned) [Compound 353] | >5.00 mg/kg | 1.97 nM |  | 
33 | CC(C(c1ccc(NC(=O)Cc2ccc(Cl)cc2)cc1)n1ccnc1)N1CCCCC1 (single isomer, unassigned) [Compound 366] | >10.00 mg/kg | 3.05 nM |  | 
34 | CC(C(c1ccc(NC(=O)Cc2ccc(Cl)cc2)cc1)n1ccnc1)N(C)C (single isomer, unassigned) [Compound 367] | 2.50 mg/kg | 1.25 nM |  | 
35 | CC(C(c1ccc(NC(=O)Cc2ccc(Cl)cc2)cc1)n1ccnc1)N(C)C (single isomer, unassigned) [Compound 368] | 2.50 mg/kg | 0.583 nM |  | 
36 | CC(Sc1ccccc1)C(c1ccc(NC(=O)Cc2ccc(Cl)cc2)cc1)n1ccnc1 (single isomer, unassigned) [Compound 369] | 10.00 mg/kg | 82.2 nM |  | 
